From ChEMBL document CHEMBL1201862, “PubChem BioAssay data set” (2004)
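Method: 48-hour compound exposure of cells in 96-well plates, five concentrations, linear interpolation of endpoints. GI50: concentration for 50% inhibition of growth.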 The source made the active and inactive calls. No stated cut-off is given here; in the data, active = GI50 up to about 1.1 µM and inactive = higher.

Tests used:
Experiment in all cases: growth of human tumour cells (NCI), 48 h
A549 = test system: A549
CAKI-1 = test system: CAKI-1
EKVX = test system: EKVX
HL-60 = test system: HL-60
KM12 = test system: KM12
M14 = test system: M14
MOLT-4 = test system: MOLT-4
Malme-3M = test system: Malme-3M
NCI-H460 = test system: NCI-H460
PC-3 = test system: PC-3
RPMI-8226 = test system: RPMI-8226
SF-268 = test system: SF-268
SK-MEL-28 = test system: SK-MEL-28
SNB-19 = test system: SNB-19
SW-620 = test system: SW-620
UACC-62 = test system: UACC-62
UO-31 = test system: UO-31
HCT-116 = test system: HCT-116
SF-539 = test system: SF-539
SNB-75 = test system: SNB-75

SMILES | GI50 (A549) | GI50 (CAKI-1) | GI50 (EKVX) | GI50 (HL-60) | GI50 (KM12) | GI50 (M14) | GI50 (MOLT-4) | GI50 (Malme-3M) | GI50 (NCI-H460) | GI50 (PC-3) | GI50 (RPMI-8226) | GI50 (SF-268) | GI50 (SK-MEL-28) | GI50 (SNB-19) | GI50 (SW-620) | GI50 (UACC-62) | GI50 (UO-31) | GI50 (HCT-116) | GI50 (SF-539) | GI50 (SNB-75)
NS(=O)(=O)c1ccc(Nc2c3ccccc3nc3c(C(=O)NCCCN(CCO)CCO)cccc23)cc1 | 26.7 µM (inactive) | > 100 µM (inactive) | 61.5 µM (inactive) | > 10 µM (inactive) | 16.7 µM (inactive) | 24.2 µM (inactive) | 4.86 µM (inactive) | 20.4 µM (inactive) | 15.7 µM (inactive) | 34.2 µM (inactive) | 22.3 µM (inactive) | 21.8 µM (inactive) | 22.4 µM (inactive) | 15.2 µM (inactive) | 21.5 µM (inactive) | 17.9 µM (inactive) | > 100 µM (inactive) |  |  | 
COc1ccc(C2OC2C(=O)C23CC4CC(CC(C4)C2)C3)cc1 (stereo not given) | 45.6 µM (inactive) |  | > 100 µM (inactive) | 15.9 µM (inactive) | 96.8 µM (inactive) | > 100 µM (inactive) | 47.1 µM (inactive) | > 100 µM (inactive) | 44.8 µM (inactive) | 31.9 µM (inactive) | 25.2 µM (inactive) | 54.6 µM (inactive) | > 100 µM (inactive) | 33.3 µM (inactive) | > 100 µM (inactive) | 10.4 µM (inactive) | > 100 µM (inactive) | 58.6 µM (inactive) | > 100 µM (inactive) | > 10 µM (inactive)
Cc1cc2c3c([nH]c2c2ccnc(C)c12)CCCC3 | 2.12 µM (inactive) |  | 2.07 µM (inactive) | 1.69 µM (inactive) | 2.7 µM (inactive) | 1.9 µM (inactive) | 2.01 µM (inactive) | 1.29 µM (inactive) | 1.94 µM (inactive) | 3.78 µM (inactive) | 1.84 µM (inactive) | 3.75 µM (inactive) | 1.76 µM (inactive) |  | 1.91 µM (inactive) | 1.77 µM (inactive) | 2.05 µM (inactive) | 1.82 µM (inactive) | 1.85 µM (inactive) | 1.87 µM (inactive)
O=C(C/N=C(\CN(c1ccccc1)c1ccccc1)Oc1c(Cl)cc(Cl)cc1Cl)N1c2ccccc2Sc2ccccc21 | 54.5 µM (inactive) |  | > 100 µM (inactive) | 47.4 µM (inactive) | 38.1 µM (inactive) | 30.5 µM (inactive) | 30.6 µM (inactive) | 31 µM (inactive) | 56.4 µM (inactive) | 34 µM (inactive) | 62.2 µM (inactive) | 81.7 µM (inactive) | > 100 µM (inactive) | > 100 µM (inactive) | 65 µM (inactive) | 4.61 µM (inactive) |  | 34.9 µM (inactive) | > 100 µM (inactive) | 22.3 µM (inactive)
CNC1(C(=O)O)CC1 | > 100 µM (inactive) |  | > 100 µM (inactive) | > 100 µM (inactive) | > 100 µM (inactive) | > 100 µM (inactive) | > 100 µM (inactive) | > 100 µM (inactive) | > 100 µM (inactive) | > 100 µM (inactive) | > 100 µM (inactive) | > 100 µM (inactive) | > 100 µM (inactive) | > 100 µM (inactive) | > 100 µM (inactive) | 69.2 µM (inactive) |  | > 100 µM (inactive) | > 100 µM (inactive) | 
C[n+]1c2ccccc2c(N=[N+]=[N-])c2ccccc21 | 6.44 µM (inactive) | > 10 µM (inactive) | 8.32 µM (inactive) | 9.18 µM (inactive) | > 10 µM (inactive) | > 10 µM (inactive) | 4.69 µM (inactive) | 5.42 µM (inactive) | 4.26 µM (inactive) | 5.37 µM (inactive) | 5.08 µM (inactive) | > 10 µM (inactive) | > 10 µM (inactive) | 9.18 µM (inactive) | 6.28 µM (inactive) | 7.73 µM (inactive) |  | 4.22 µM (inactive) | 4.83 µM (inactive) | 
O=C1c2c(ccc3c2CCCC3)CC12Cc1ccc3c(c1C2=O)CCCC3 | > 100 µM (inactive) |  | > 100 µM (inactive) | > 100 µM (inactive) |  | > 100 µM (inactive) | > 100 µM (inactive) | 28.2 µM (inactive) | > 100 µM (inactive) | > 100 µM (inactive) | > 100 µM (inactive) | > 100 µM (inactive) | > 100 µM (inactive) | > 100 µM (inactive) | > 100 µM (inactive) |  | > 100 µM (inactive) | 77.4 µM (inactive) | > 100 µM (inactive) | > 100 µM (inactive)
O=C1CC[C@@]2(O)[C@H]3Cc4ccc(-c5ccccc5)c5c4[C@@]2(CCN3CC2CC2)[C@H]1O5 | 20.6 µM (inactive) | 18.3 µM (inactive) | 19.6 µM (inactive) | 17.9 µM (inactive) | 18.9 µM (inactive) | 17.6 µM (inactive) | 18.6 µM (inactive) | 15.5 µM (inactive) | 17.9 µM (inactive) | 19 µM (inactive) | 15.4 µM (inactive) | 14.3 µM (inactive) | 42.4 µM (inactive) | 25.5 µM (inactive) | 10.3 µM (inactive) | 12.2 µM (inactive) | 16.1 µM (inactive) | 16.9 µM (inactive) | 16.8 µM (inactive) | 
CC1CC(=O)N(N(C)C)C(C#N)(C#N)C1(C#N)C#N (stereo not given) | 24.8 µM (inactive) | 2.3 µM (inactive) | 23 µM (inactive) | 0.653 µM (active) | > 44.1 µM (inactive) | 15.8 µM (inactive) | 1.87 µM (inactive) | 12.2 µM (inactive) |  | 18.4 µM (inactive) | 4.14 µM (inactive) | 35.8 µM (inactive) | 16.1 µM (inactive) | 28.7 µM (inactive) | 5.12 µM (inactive) | 18.3 µM (inactive) | 16.9 µM (inactive) | 17 µM (inactive) | 24.2 µM (inactive) | > 35.6 µM (inactive)
C[C@@H]1CC[C@]2(C)C3(C)CC[C@]2(OC3=O)[C@@]12CC(c1ccoc1)OC2=O (stereo not given in full) | > 100 µM (inactive) | 34.3 µM (inactive) | 72.3 µM (inactive) | 21.6 µM (inactive) | > 100 µM (inactive) | 25.1 µM (inactive) | 31 µM (inactive) | 21.1 µM (inactive) | 86.5 µM (inactive) | 40.6 µM (inactive) | 38.2 µM (inactive) | 37.2 µM (inactive) | 26.7 µM (inactive) | > 100 µM (inactive) | 26.9 µM (inactive) | 61.4 µM (inactive) | 28 µM (inactive) | 17.5 µM (inactive) | 30.5 µM (inactive) | 
CCSc1nc(-c2cccs2)nc2ccc(I)cc12 | > 100 µM (inactive) | > 100 µM (inactive) | 46.9 µM (inactive) | > 100 µM (inactive) | 72.8 µM (inactive) | > 100 µM (inactive) | > 100 µM (inactive) |  | > 100 µM (inactive) | > 100 µM (inactive) | > 100 µM (inactive) | > 100 µM (inactive) | > 100 µM (inactive) | > 100 µM (inactive) | > 100 µM (inactive) | > 100 µM (inactive) | > 100 µM (inactive) | > 100 µM (inactive) | > 100 µM (inactive) | > 100 µM (inactive)
